Key:
mouse 11β-HSD1 = target: T1, mouse 11β-HSD1 (Mus musculus, UniProt P50172); experiment: Enzyme activity analysis on mouse 11β-HSD1 (HTRF cortisol, liver microsomes); format: biochemical; details: second value of cell
T1 construct: 100 ug/ml human/mouse liver microsomes; from tissue; host or cells: mouse liver microsomes
Method in brief: (§1)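 Cortisol generated by mouse or human liver microsome 11β-HSD1 during 2 h at 37° C., measured by HTRF competition (cryptate anti-cortisol antibody, d2-cortisol, 2 h room temperature) against a cortisol standard curve. IC50 from percent inhibition versus no-compound control.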

human 11β-HSD1 = target: T2, human 11β-HSD1 (Homo sapiens, UniProt P28845); experiment: Enzyme activity analysis on human 11β-HSD1 (HTRF cortisol, liver microsomes); format: biochemical; details: first value of cell
T2 construct: 100 ug/ml human/mouse liver microsomes; from tissue; host or cells: human liver microsomes
T2 sequence (P28845 whole entry): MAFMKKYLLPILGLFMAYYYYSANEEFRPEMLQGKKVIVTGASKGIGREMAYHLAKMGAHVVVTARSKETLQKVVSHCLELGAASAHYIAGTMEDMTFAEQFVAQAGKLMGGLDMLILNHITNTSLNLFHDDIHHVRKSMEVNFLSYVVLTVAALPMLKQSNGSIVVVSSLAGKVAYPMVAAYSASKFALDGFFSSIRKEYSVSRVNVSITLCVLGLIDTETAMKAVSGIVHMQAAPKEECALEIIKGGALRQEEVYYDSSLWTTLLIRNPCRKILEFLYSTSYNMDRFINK
Method in brief: as §1

T1 sequence (P50172 whole entry): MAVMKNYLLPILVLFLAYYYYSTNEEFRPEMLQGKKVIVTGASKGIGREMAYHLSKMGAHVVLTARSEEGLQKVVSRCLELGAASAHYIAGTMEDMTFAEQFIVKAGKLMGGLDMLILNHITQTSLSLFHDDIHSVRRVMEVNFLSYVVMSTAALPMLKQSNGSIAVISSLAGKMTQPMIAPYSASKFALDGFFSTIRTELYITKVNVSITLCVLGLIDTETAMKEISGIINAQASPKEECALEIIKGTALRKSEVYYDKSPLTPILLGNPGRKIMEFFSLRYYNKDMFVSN

| SMILES | IC50 (mouse 11β-HSD1) [µM] | IC50 (human 11β-HSD1) [µM] |
| --- | --- | --- |
| CC(C)(NS(=O)(=O)c1ccc(F)c(F)c1F)C(=O)NC1C2CC3CC1CC(C(N)=O)(C3)C2 (centres unmarked) [compound 116, N-4-(2-(2,3,4-trifluorophenylsulfonamido)-2-methylpropanamido)adamantane-1-carboxy amide] | 0.122 | 0.035 |
| CC(C)(NS(=O)(=O)c1cc(F)ccc1F)C(=O)NC1C2CC3CC1CC(C(N)=O)(C3)C2 (centres unmarked) [compound 120] | 0.453 | 0.051 |
| CC(C)(NS(=O)(=O)c1cccc(Br)c1)C(=O)NC1C2CC3CC1CC(C(N)=O)(C3)C2 (centres unmarked) [compound 123] | 0.291 | 0.139 |
| CC(C)(NS(=O)(=O)c1ccc(Br)cc1)C(=O)NC1C2CC3CC1CC(C(N)=O)(C3)C2 (centres unmarked) [compound 124] | 0.22 | 0.024 |
| COc1cc([N+](=O)[O-])ccc1S(=O)(=O)NC(C)(C)C(=O)NC1C2CC3CC1CC(C(N)=O)(C3)C2 (centres unmarked) [compound 128] | 0.22 | 0.076 |
| CC(C)(NS(=O)(=O)c1ccccc1C#N)C(=O)NC1C2CC3CC1CC(C(N)=O)(C3)C2 (centres unmarked) [compound 130, 4-[2-(2-cyano-benzenesulfonylamino)-2-methyl-propionylamino]-adamantane-1-carboxylic acid amide] | 0.405 | 0.078 |
| NC(=O)C12CC3CC(C1)C(NC(=O)C1(NS(=O)(=O)c4ccccc4Br)CC1)C(C3)C2 (centres unmarked) [compound 131, N-4-(1-(2-bromophenylsulfonamido)cyclopropanecarboxyamido)adamantane-1-carboxyamide] | 0.048 | 0.008 |
| NC(=O)C12CC3CC(C1)C(NC(=O)C1(NS(=O)(=O)c4ccccc4Cl)CC1)C(C3)C2 (centres unmarked) [compound 132, N-4-(1-(2-chlorophenylsulfonamido)cyclopropanecarboxyamido)adamantane-1-carboxyamide] | 0.148 | 0.037 |
| NC(=O)C12CC3CC(C1)C(NC(=O)C1(NS(=O)(=O)c4c(Cl)cccc4Cl)CC1)C(C3)C2 (centres unmarked) [compound 134, N-4-(1-(2,6-dichlorophenylsulfonamido)cyclopropanecarboxyamido)adamantane-1-carboxyamide] | 0.021 | 0.021 |
| NC(=O)C12CC3CC(C1)C(NC(=O)C1(NS(=O)(=O)c4cccc(Cl)c4Cl)CC1)C(C3)C2 (centres unmarked) [compound 136, N-4-(1-(2,3-dichlorophenylsulfonamido)cyclopropanecarboxyamido)adamantane-1-carboxyamide] | 0.028 | 0.009 |
| O=C(NC1C2CC3CC(C2)CC1C3)C1(NS(=O)(=O)c2ccccc2[N+](=O)[O-])CCC1 (centres unmarked) [compound 137, N-(adamantane-2-yl)-1-(2-nitrophenylsulfonamido)cyclobutanecarboxyamide] | 1.1 | 0.255 |
| O=C(NC1C2CC3CC(C2)CC1C3)C1(NS(=O)(=O)c2ccccc2)CCC1 (centres unmarked) [compound 139] | 0.178 | 0.547 |
| O=C(NC1C2CC3CC(C2)CC1C3)C1(NS(=O)(=O)c2ccccc2C(F)(F)F)CCC1 (centres unmarked) [compound 140, N-(adamantane-2-yl)-1-(2-trifluoromethylphenylsulfonamido)cyclobutanecarboxyamide] | 1.68 | 0.184 |
| O=C(NC1C2CC3CC(C2)CC1C3)C1(NS(=O)(=O)c2cccc([N+](=O)[O-])c2)CCC1 (centres unmarked) [compound 142, N-(adamantane-2-yl)-1-(3-nitrophenylsulfonamido)cyclobutanecarboxyamide] | 1.44 | > 2.5 |
| Cc1c(Cl)cccc1S(=O)(=O)NC1(C(=O)NC2C3CC4CC2CC(C(N)=O)(C4)C3)CCC1 (centres unmarked) [compound 149, N-4-(1-(2-methyl-3-chlorophenylsulfonamido)cyclobutanecarboxyamido)adamantane-1-carboxyamide] | 0.04 | 0.015 |
| Cc1ccc(S(=O)(=O)NC2(C(=O)NC3C4CC5CC3CC(C(N)=O)(C5)C4)CCC2)cc1F (centres unmarked) [compound 151, N-4-(1-(3-fluoro-4-methylphenylsulfonamido)cyclobutanecarboxyamido)adamantane-1-carboxyamide] | 0.062 | 0.182 |
| NC(=O)C12CC3CC(C1)C(NC(=O)C1(NS(=O)(=O)c4ccccc4Cl)CCC1)C(C3)C2 (centres unmarked) [compound 152, N-4-(1-(2-chlorophenylsulfonamido)cyclobutanecarboxyamido)adamantane-1-carboxyamide] | 0.099 | 0.021 |
| NC(=O)C12CC3CC(C1)C(NC(=O)C1(NS(=O)(=O)c4ccc(Cl)cc4Cl)CCC1)C(C3)C2 (centres unmarked) [compound 153, N-4-(1-(2,4-dichlorophenylsulfonamido)cyclobutanecarboxyamido)adamantane-1-carboxyamide] | 0.459 | 0.058 |

Results, then the compound that gave them:

| IC50 (mouse 11β-HSD1) [µM] | IC50 (human 11β-HSD1) [µM] | SMILES |
| --- | --- | --- |
| 0.011 | 0.024 | CC(C)(NS(=O)(=O)c1c(Cl)cc(Cl)cc1Cl)C(=O)NC1C2CC3CC1CC(C(N)=O)(C3)C2 (centres unmarked) [compound 112, N-4-(2-(2,4,6-trichlorophenylsulfonamido)-2-methylpropanamido)adamantane-1-carboxy amide] |
| 0.215 | 0.208 | CC(C)(NS(=O)(=O)c1ccc([N+](=O)[O-])c(C(F)(F)F)c1)C(=O)NC1C2CC3CC1CC(C(N)=O)(C3)C2 (centres unmarked) [compound 113, N-4-(2-(3-trifluoromethyl-4-nitrophenylsulfonamido)-2-methylpropanamido)adamantane-1-carboxyamide] |
| 0.207 | 0.093 | Cc1ccc(S(=O)(=O)NC(C)(C)C(=O)NC2C3CC4CC2CC(C(N)=O)(C4)C3)cc1[N+](=O)[O-] (centres unmarked) [compound 114, N-4-(2-(3-nitro-4-methylphenylsulfonamido)-2-methylpropanamido)adamantane-1-carboxyamide] |
| 0.456 | 0.235 | COc1ccc(S(=O)(=O)NC(C)(C)C(=O)NC2C3CC4CC2CC(C(N)=O)(C4)C3)cc1F (centres unmarked) [compound 115, N-4-(2-(3-fluoro-4-methoxyphenylsulfonamido)-2-methylpropanamido)adamantane-1-carboxyamide] |
| 0.224 | 0.116 | CC(C)(NS(=O)(=O)c1cc(F)c(F)c(F)c1)C(=O)NC1C2CC3CC1CC(C(N)=O)(C3)C2 (centres unmarked) [compound 118, N-4-(2-(3,4,5-trifluorophenylsulfonamido)-2-methylpropanamido)adamantane-1-carboxy amide] |
| 0.168 | 0.021 | CC(C)(NS(=O)(=O)c1cc(Cl)cc(Br)c1)C(=O)NC1C2CC3CC1CC(C(N)=O)(C3)C2 (centres unmarked) [compound 125] |
| 0.455 | 0.182 | CC(C)(NS(=O)(=O)c1ccc(C(F)(F)F)cc1)C(=O)NC1C2CC3CC1CC(C(N)=O)(C3)C2 (centres unmarked) [compound 126] |
| 0.053 | 0.062 | CC(C)(NS(=O)(=O)c1cccc(C(F)(F)F)c1)C(=O)NC1C2CC3CC1CC(C(N)=O)(C3)C2 (centres unmarked) [compound 127] |
| 0.589 | 0.096 | COc1ccc(S(=O)(=O)NC(C)(C)C(=O)NC2C3CC4CC2CC(C(N)=O)(C4)C3)c(OC)c1 (centres unmarked) [compound 129] |
| 0.074 | 0.015 | Cc1c(Cl)cccc1S(=O)(=O)NC1(C(=O)NC2C3CC4CC2CC(C(N)=O)(C4)C3)CC1 (centres unmarked) [compound 133, N-4-(1-(2-methyl-3-chlorophenylsulfonamido)cyclopropanecarboxyamido)adamantane-1-carboxyamide] |
| 0.02 | 0.042 | NC(=O)C12CC3CC(C1)C(NC(=O)C1(NS(=O)(=O)c4cccc5cccnc45)CC1)C(C3)C2 (centres unmarked) [compound 135, N-4-(1-(quinoline-8-sulfonamido)cyclopropanecarboxyamido)adamantane-1-carboxyamide] |
| 0.806 | 0.113 | O=C(NC1C2CC3CC(C2)CC1C3)C1(NS(=O)(=O)c2ccccc2Br)CCC1 (centres unmarked) [compound 138, N-(adamantane-2-yl)-1-(2-bromophenylsulfonamido)cyclobutanecarboxyamide] |
| 0.208 | 0.139 | O=C(NC1C2CC3CC(C2)CC1C3)C1(NS(=O)(=O)c2cccc3cccnc23)CCC1 (centres unmarked) [compound 141, N-(adamantane-2-yl)-1-(quinoline-8-sulfonamido)cyclobutanecarboxyamide] |
| > 2.5 | > 2.5 | O=C(NC1C2CC3CC(C2)CC1C3)C1(NS(=O)(=O)c2ccc([N+](=O)[O-])cc2)CCC1 (centres unmarked) [compound 143, N-(adamantane-2-yl)-1-(4-nitrophenylsulfonamido)cyclobutanecarboxyamide] |
| 1.82 | 0.265 | O=C(NC1C2CC3CC(C2)CC1C3)C1(NS(=O)(=O)c2ccccc2OC(F)(F)F)CCC1 (centres unmarked) [compound 144, N-(adamantane-2-yl)-1-(2-trifluoromethoxyphenylsulfonamido)cyclobutanecarboxyamide] |
| 0.509 | 0.08 | NC(=O)C12CC3CC(C1)C(NC(=O)C1(NS(=O)(=O)c4ccccc4[N+](=O)[O-])CCC1)C(C3)C2 (centres unmarked) [compound 145, N-4-(1-(2-nitrophenylsulfonamido)cyclobutanecarboxyamido)adamantane-1-carboxyamide] |
| 0.505 | 1.3 | NC(=O)C12CC3CC(C1)C(NC(=O)C1(NS(=O)(=O)c4ccc([N+](=O)[O-])c(C(F)(F)F)c4)CCC1)C(C3)C2 (centres unmarked) [compound 147, N-4-(1-(3-trifluoromethyl-4-nitrophenylsulfonamido)cyclobutanecarboxyamido)adamantane-1-carboxyamide] |
| 0.056 | 0.163 | NC(=O)C12CC3CC(C1)C(NC(=O)C1(NS(=O)(=O)c4ccccc4)CCC1)C(C3)C2 (centres unmarked) [compound 148, N-4-(1-(phenylsulfonamido)cyclobutanecarboxyamido)adamantane-1-carboxyamide] |
| 0.187 | 0.639 | Cc1ccc(S(=O)(=O)NC2(C(=O)NC3C4CC5CC3CC(C(N)=O)(C5)C4)CCC2)cc1[N+](=O)[O-] (centres unmarked) [compound 150, N-4-(1-(3-nitro-4-methylphenylsulfonamido)cyclobutanecarboxyamido)adamantane-1-carboxyamide] |

Source: US9073830B2 (Hyundai Pharm Co., Ltd., priority 2011, dated 2015)
